Entries after “also recorded” stand apart in the source; their conditions may differ. Like-named read-outs stand apart in the source and are kept apart here.
Legend:
[1] = test system: experimental periodontitis induced by silk thread ligation of P3 and P4; assay: Canine periodontitis model study, topical alveolar mucosa injection (Example 1): alveolar bone loss and clinical scores; format: in vivo, beagle dogs
From the text: The standardized X-ray photographing method (J. Periodontol., 33, 164-171 (1962)) was employed, in which irradiation direction of X-ray to a subject and position of the film are always kept constant so that X-ray photographs of the same region of the same individual can be obtained repeatedly always under the same conditions. This time, in order to evaluate alveolar bone loss around P3 and P4 of right and left mandibles, a cap was formed between incisor tooth and M1 of both mandibles using an acrylic resin, and a fixing device was prepared by combining this cap with a film holder.
Each animal was anesthetized with xylazine hydrochloride and ketamine hydrochloride (Ketalar, Sankyo), and a dental film (Ultra Speed DF58, Kodak) was attached to the film holder on the fixing device to photograph X-ray by a dental X-ray photographing apparatus (Super Max 70, type HD-1, Morita Seisakusho).
That is, an X-ray film was measured under a stereoscopic microscope (objective×1, eyepiece×10), an OHP sheet was put on the X-ray film, and line a, line b and line c were marked on the OHP sheet using a ceramic knife, thereby obtaining respective two points b and b′ and c and c′ on line b and line c. Distances between the b-b′ and c-c′ were respectively defined as the distances from the reference points (b and c points) to the alveolar bone crest. The length of alveolar bone loss was expressed by averaging values obtained by subtracting the sum of b-b′ and c-c′ distances in each individual at the time of each week from the sum of b-b′ and c-c′ distances at the time of ligation.
Measurement of the depth of periodontal pockets was carried out by a four point measuring method in accordance with J. Clin. Periodontol., 4, 173-190 (1997)).
Regarding the length of gingival recession, the distance from the reference point on the tooth crown prepared at the time of ligation to the gingival margin was measured on two regions, the buccal and lingual side, of P4 at the time of each week in each individual, and expressed as the average value.
Attachment level is an index for measuring position of the bottom of gingival sulcus (pocket bottom), and was expressed as the distance from the pocket bottom to the reference point on the tooth crown. That is, a value of the depth of pocket plus the length of gingival recession was used as the attachment level.
Regions of inflammation and degree of the symptoms of gingiva were evaluated in accordance with J. Periodontol., 38, 602-610 (1967)).

[2] = Intra-alveolar bone and intra-rib drug concentration, canine periodontitis model (Example 1); settings: for Intra-rib drug concentration: 13 weeks after final administration; for concentration at 13 weeks after final administration: female, beagle, dog, other: alveolar mucosa injection
From the text: A total of 30 animals of female beagle dogs (1 to 2 years, body weight at the time of grouping 7.9 to 13.7 kg) were fed with a soft diet prepared by impregnating Gains Packen (AGF) with water from the previous day of ligation and used in this study. Under anesthesia with xylazine hydrochloride (Bayer) and pentobarbital, gingiva between second premolar (hereinafter, P2)/third premolar (hereinafter, P3), between P3/fourth premolar (hereinafter, P4) and between P4/first molar (hereinafter, M1) of right and left mandibles were incised with a surgical knife, and periodontal pockets were prepared around P3 and P4 using a periosteal elevator. An experimental periodontitis was induced by placing double-ligation of silk threads (surgical thread; Nescosuture (3-0), Morita) around the cervices of P3 and P4. In this case, reference points were prepared on the buccal side and lingual side of the crown of P4 at the height of gingival margin using dental drill. […] 1) Control group: physiological saline, 2) incadronate […] group, 3) incadronate 1.5 μg/site group, 4) incadronate 5.0 μg/site group and 5) incadronate 15 μg/site group.
The administration was started just after the surgical operation in each group. Incadronate (an injection, mfd. by Yamanouchi Pharmaceutical Co., Ltd.) was prepared and diluted with saline such that the administration liquid volume became 150 μl/site. The administration was carried out a total of three times, namely just after the ligation and 1 and 2 weeks after the ligation. The administration was carried out by the alveolar mucosa injection method using a 27 G injection needle attached to a glass micro-syringe. The injection needle was inserted horizontally to the alveolar mucosa close to the boundary between the alveolar mucosa and gingiva (muco-gingival junction) around the ligated tooth, and 150 μl of a drug solution was injected between periosteum of the alveolar bone and alveolar mucosa. The administration was carried out on both of the buccal and lingual side (a total of 4 sites per 1 mandible, 600 μl in total). Each animal was sacrificed by exsanguination 13 weeks after the final administration, and the mandibles including P3 and P4 of right and left side and the ribs were harvested and submitted to the intra-bone drug concentration measurement.
Root of the left fourth premolar was extracted using cutting pliers, the whole mandible containing jaw bone and alveolar bone was divided up and down into two, and the upper ½ was considered as the alveolar bone. […] Incadronate was extracted from these samples using a calcium precipitation method and its intra-bone drug concentration was measured by an HPLC method.

[3] = test system: experimental periodontitis (canine periodontitis model); assay: High dose topical administration study in canine periodontitis model (Comparative Example 1): alveolar bone loss and clinical scores; format: in vivo, beagle dog; settings: 50 and 150 μg/site groups vs control, 3 topical injections
Description: (§1) Using 26 animals of beagle dog (3 to 6 years, body weight at the time of grouping 6.1 to 12.9 kg), topical administration study in a canine periodontitis model were carried out on a), control group: physiological saline, b) incadronate […] group and c) incadronate 150 μg/site group.

[4] = Intra-alveolar bone drug concentration, high dose topical study (Comparative Example 1); format: in vivo; settings: beagle, dog, read-out: Intra-alveolar bone concentration of incadronate
Description: as §1

[5] = test system: lamina propria mucosae of the administered sites; assay: Local irritation to the lamina propria mucosae of the administered sites (Comparative Example 1); format: in vivo, beagle dog
Description: as §1

[6] = Alveolar bone drug concentration in rat tooth movement model; format: in vivo; settings: 10 μg/50 μl/kg group
[7] = Alveolar bone drug concentration after oral administration in canine periodontitis model; format: in vivo; settings: dog, oral 1.0 mg/kg, at completion of 26 weeks administration
Description: Thereafter, it was confirmed that the drug concentration in the alveolar bone is about 4 μg/g in that case.
Intra-alveolar bone concentration of incadronate was 5.67 and 4.28 μg/g bone. This was similar to the intra-alveolar bone drug concentration of about 4 μg/g at the time of the completion of 26 weeks oral administration of 1.0 mg/kg of incadronate (J. Periodont. Res., 33, 196-204 (1998)).

[8] = test system: canine periodontitis model; settings: oral administration; cited from earlier work
[9] = test system: hamster periodontitis model; settings: subcutaneous administration; cited from earlier work
[10] = test system: tooth movement model (tooth relapse); assay: Tooth movement model in rat, intra-gingival administration
[11] = test system: rat molar experimental tooth movement models; settings: cited from earlier work
[12] = test system: monkey periodontitis model; settings: oral administration; cited from earlier work
dog periodontitis model = settings: oral administration; cited from earlier work

In the case of `O.O=P([O-])([O-])C(NC1CCCCCC1)P(=O)(O)O.[Na+].[Na+]` [incadronate, disodium cycloheptylaminomethylenediphosphonate monohydrate], the “acceleration of pocket depth” value ([1]; 2 and 4 weeks after the ligation, dose of 1.5 μg/site or more) is reported as “significantly inhibited”, the “exacerbation of gingival index” value ([1]; after 2 weeks of the ligation, dose of 1.5 μg/site or more) is reported as “significantly inhibited” and the “reduction of attachment level” value ([1]; after 4 and 15 weeks of the ligation, dose of 1.5) is reported as “significantly inhibited”. The “dose at which alveolar bone loss inhibitory action was most potent” value ([1]; doses 0.5, 1.5, 5.0, 15 μg/site tested) was 5 μg/site, the “reduction of attachment level” value ([1]; in and after 2 weeks of the ligation, dose of 5 or more) was “significantly inhibited” and the “acceleration of gingival recession” value ([1]; in and after 4 weeks of the ligation, dose of 5 or more) was “significantly inhibited”. For the same compound, the “aggravation of the clinical scores of periodontitis” value ([1]; incadronate-treated groups) was “inhibited”, the “alveolar bone loss (standardized X-ray)” value ([1]; incadronate-treated groups 0.5-15 μg/site vs control, after ligation) was “inhibited” and the “acceleration of gingival recession” value ([1]; only after 15 weeks of the ligation, dose of 1.5) was “significantly inhibited”. The “intra-rib concentration as fraction of the intra-alveolar bone concentration” value ([2]; 5 to 15 μg/site-administered groups) was 1/10, the Intra-rib drug concentration ([2]; dose 0.5 μg/site) was “N.D. (N.D. indicates detection limit (0.025 μg/g) or less)” and the Intra-rib drug concentration ([2]; dose 1.5 μg/site) was “N.D. (N.D. indicates detection limit (0.025 μg/g) or less)”. For the same compound, the concentration at 13 weeks after final administration ([2]; alveolar bone, 0.5 μg/site) was 58 ± 8 ng/g, the concentration at 13 weeks after final administration ([2]; alveolar bone, 1.5 μg/site) was 174 ± 11 ng/g and the concentration at 13 weeks after final administration ([2]; alveolar bone, 5 μg/site) was 356 ± 70 ng/g. It also gave a concentration at 13 weeks after final administration ([2]; alveolar bone, 15 μg/site) of 1040 ± 313 ng/g, a concentration at 13 weeks after final administration ([2]; rib (epiphyseal region), 5 μg/site) of 33 ± 3 ng/g and a concentration at 13 weeks after final administration ([2]; rib (epiphyseal region), 15 μg/site) of 91 ± 16 ng/g. The clinical scores [3] was “no significant difference”, the “alveolar bone loss inhibitory action” value ([3]; monohydrate) was “unable to exert alveolar bone resorption inhibitory action; also recorded: no significant difference” and the concentration at 8 weeks after final administration ([4]; 50 μg/site group (first value)) was 5670 ng/g. For the same compound, the concentration at 8 weeks after final administration ([4]; 150 μg/site group) was 4280 ng/g, the “local irritation to the lamina propria mucosae of the administered sites” value ([5]; 50 μg/site group) was “slight mononuclear cell infiltration was also observed partly” and the “local irritation to the lamina propria mucosae of the administered sites” value ([5]; 150 μg/site group, one week after the final administration, monohydrate) was “considerable local irritation was observed; also recorded: bleeding, fibrin precipitation, inflammatory cell infiltration, salivary gland and muscular tissue damage were observed in all cases”. For the same compound, the “average concentration in the alveolar bone” value [6] was 0.6 µg/g, the concentration at 26 weeks [7] was ~4000 ng/g and the “alveolar bone loss and attachment level” value [8] was “alveolar bone loss inhibitory and attachment level improving actions”. The “alveolar bone resorption inhibitory action” value [8] was “shows an alveolar bone resorption inhibitory action dose-dependently”, the suitable dose [8] was 1.0 mg/kg and the alveolar bone loss [9] was “alveolar bone loss inhibitory action”. For the same compound, the “effect on tooth relapse” value ([10]; 10 μg/50 μl/kg intra-gingival (200 μg/ml)) was “no effect”, the “effect on tooth relapse” value ([10]; 100 μg/50 μl/kg intra-gingival (2,000 μg/ml)) was “good tooth relapse inhibitory action” and the “local irritation in gross observation” value ([10]; 10 or 100 μg/50 μl/kg intra-gingival) was “not observed”.

For `O=P(O)(O)C(O)(Cc1cccnc1)P(=O)(O)O` [risedronate], the “effect on experimental tooth movement” value ([11]; topical administration to the sub-periosteum area adjacent to the first molar) is given as “effective”.

For `NCCC(O)(P(=O)(O)O)P(=O)(O)O` [pamidronate], the “effect on experimental tooth movement” value ([11]; topical administration to sub-mucasa on palate-side) is given as “effective”.

In the case of `NCCCC(O)(P(=O)(O)O)P(=O)(O)O` [alendronate], the alveolar bone destruction [12] is given as “inhibited alveolar bone destruction” and the alveolar bone destruction (dog periodontitis model) is given as “inhibited alveolar bone destruction”.

Reference: US6682718B1, “Remedies for periodontosis” (Yamanouchi Pharmaceutical Co., Ltd., priority 1999, dated 2004)
